The values below come from US11718601B2 (Bristol-Myers Squibb Company, priority 2021, dated 2023).

A value given as a limit tells only on which side of the number the result lay.

One assay deals with T1, Ikaros (Homo sapiens, UniProt Q13422+Q96SW2).
T1 construct: endogenous in cells; host or cells: Jurkat cells
Description: Helios Cellular Degradation Assay (Ikaros, Jurkat). It is filed as cell-based. As to conditions: Jurkat cells, 72 h incubation, flow cytometry with Ikaros-Alexa488 antibody; read-out: Ikaros Jurkat IC50. On the procedure: (§1) Jurkat cells were plated at 80,000 cells/well in 40 μL RPMI+10% FBS in a 384 well cell culture plate prior to using acoustic dispensing technology for adding compound of interest. Cell cultures were incubated for 72 h at 37° C. and 5% CO2. In order to facilitate analysis, cell cultures were spun down at 200 rpm for 5 min and the supernatant was discarded. […] Subsequently, 30 μL of 1× Permeabilization buffer was added prior to centrifuging the cells and discarding the supernatant. Stained cells were resuspended in 25 μL of flow cytometry staining buffer (PBS+0.2% BSA) and analyzed using an Intellicyt Ique Plus flow cytometer.
(In general: In flow cytometry, cells or beads pass a laser one at a time.)

Another assay deals with T2, Helios (Homo sapiens, UniProt Q96SW2+Q9UKS7).
T2 construct: endogenous in cells; host or cells: Jurkat cells
T2 sequence (Q9UKS7 whole entry): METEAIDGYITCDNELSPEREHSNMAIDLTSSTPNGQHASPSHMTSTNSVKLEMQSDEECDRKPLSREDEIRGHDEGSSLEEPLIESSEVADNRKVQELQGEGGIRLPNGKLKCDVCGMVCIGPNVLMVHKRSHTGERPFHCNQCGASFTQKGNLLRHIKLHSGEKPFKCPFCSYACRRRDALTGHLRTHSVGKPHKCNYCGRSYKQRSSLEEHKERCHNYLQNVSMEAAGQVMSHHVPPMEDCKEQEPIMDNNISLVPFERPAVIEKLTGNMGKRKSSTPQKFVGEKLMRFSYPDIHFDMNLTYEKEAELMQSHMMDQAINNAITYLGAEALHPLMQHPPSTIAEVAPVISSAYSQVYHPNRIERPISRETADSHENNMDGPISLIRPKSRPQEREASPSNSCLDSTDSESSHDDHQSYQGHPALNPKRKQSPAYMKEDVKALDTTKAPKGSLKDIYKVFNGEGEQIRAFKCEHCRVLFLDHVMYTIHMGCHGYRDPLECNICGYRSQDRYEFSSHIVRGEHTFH
T2 sequence (Q96SW2 whole entry): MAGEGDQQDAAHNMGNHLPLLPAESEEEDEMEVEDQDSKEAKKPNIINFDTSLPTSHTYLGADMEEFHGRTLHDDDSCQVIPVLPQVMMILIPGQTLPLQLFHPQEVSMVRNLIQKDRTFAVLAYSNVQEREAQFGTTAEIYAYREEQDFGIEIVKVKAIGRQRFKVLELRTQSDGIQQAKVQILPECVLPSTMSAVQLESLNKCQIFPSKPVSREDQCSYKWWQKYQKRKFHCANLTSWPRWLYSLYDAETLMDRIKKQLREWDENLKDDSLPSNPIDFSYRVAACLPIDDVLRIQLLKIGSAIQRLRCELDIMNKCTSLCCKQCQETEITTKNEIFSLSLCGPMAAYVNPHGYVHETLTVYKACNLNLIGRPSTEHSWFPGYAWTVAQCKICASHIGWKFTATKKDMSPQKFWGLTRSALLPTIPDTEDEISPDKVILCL
T2 sequence (Q16531 whole entry partner): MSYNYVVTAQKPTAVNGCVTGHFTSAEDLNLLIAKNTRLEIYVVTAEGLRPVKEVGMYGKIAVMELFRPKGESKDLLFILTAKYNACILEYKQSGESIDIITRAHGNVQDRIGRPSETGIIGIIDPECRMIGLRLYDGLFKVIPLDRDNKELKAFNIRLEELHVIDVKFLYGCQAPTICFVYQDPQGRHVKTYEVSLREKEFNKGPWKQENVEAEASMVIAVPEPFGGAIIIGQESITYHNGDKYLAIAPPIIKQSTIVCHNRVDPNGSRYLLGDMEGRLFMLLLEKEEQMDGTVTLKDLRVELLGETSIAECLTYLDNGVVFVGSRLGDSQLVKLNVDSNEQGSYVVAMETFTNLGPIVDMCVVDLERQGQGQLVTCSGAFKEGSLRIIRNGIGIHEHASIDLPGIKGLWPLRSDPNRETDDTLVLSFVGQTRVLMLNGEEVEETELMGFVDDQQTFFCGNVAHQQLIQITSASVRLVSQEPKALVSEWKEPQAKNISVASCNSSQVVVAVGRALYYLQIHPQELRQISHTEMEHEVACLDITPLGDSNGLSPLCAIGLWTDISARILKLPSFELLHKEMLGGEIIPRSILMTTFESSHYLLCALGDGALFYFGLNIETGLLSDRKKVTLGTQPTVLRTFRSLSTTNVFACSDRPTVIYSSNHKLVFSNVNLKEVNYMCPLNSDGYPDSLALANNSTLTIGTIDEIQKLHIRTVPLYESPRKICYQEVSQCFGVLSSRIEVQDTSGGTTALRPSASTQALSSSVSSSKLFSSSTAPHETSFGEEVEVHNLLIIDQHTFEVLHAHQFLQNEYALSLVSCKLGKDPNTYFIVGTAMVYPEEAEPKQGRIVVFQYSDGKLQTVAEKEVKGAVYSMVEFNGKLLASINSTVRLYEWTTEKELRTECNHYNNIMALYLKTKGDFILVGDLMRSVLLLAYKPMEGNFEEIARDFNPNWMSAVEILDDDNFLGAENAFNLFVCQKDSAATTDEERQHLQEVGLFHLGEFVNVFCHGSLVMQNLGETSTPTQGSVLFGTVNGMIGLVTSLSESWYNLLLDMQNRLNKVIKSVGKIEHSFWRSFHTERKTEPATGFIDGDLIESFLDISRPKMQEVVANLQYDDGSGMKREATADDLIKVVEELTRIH
In words: Helios Cellular Degradation Assay (Helios, Jurkat). Format: cell-based. As to conditions: Jurkat cells, 72 h incubation, flow cytometry with Helios-PE antibody; read-out: Helios Jurkat IC50. How it is done: as §1

T1 sequence (Q13422 whole entry): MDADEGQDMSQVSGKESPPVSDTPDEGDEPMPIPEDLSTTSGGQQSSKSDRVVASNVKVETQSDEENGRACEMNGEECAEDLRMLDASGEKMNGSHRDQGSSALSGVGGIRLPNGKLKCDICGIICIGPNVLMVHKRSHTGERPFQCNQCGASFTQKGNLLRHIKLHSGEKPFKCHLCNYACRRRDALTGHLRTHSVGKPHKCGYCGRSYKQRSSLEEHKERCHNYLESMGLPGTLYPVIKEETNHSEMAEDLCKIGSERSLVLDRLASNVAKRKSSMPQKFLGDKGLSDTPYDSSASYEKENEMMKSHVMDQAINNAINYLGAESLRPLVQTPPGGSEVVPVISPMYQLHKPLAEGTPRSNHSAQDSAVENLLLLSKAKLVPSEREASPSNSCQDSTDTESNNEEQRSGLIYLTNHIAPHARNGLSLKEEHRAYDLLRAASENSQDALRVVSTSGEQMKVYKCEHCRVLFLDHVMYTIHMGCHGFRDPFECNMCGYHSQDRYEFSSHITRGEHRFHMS
T1 sequence (Q96SW2 whole entry): as the sequence (Q96SW2 whole entry) above
T1 sequence (Q16531 whole entry partner): as the sequence (Q16531 whole entry partner) above

In the case of `Cc1cc(-c2ccc3c(c2)[C@@H](C)N(C2CCC(=O)NC2=O)C3=O)nc(N)c1C` (single isomer, unassigned) [Example 9], the figures for the DC50 at Ikaros and on Helios were above 10000 nM and 3 nM, respectively. Turning to `Cc1cc(-c2ccc3c(c2)[C@H](C)N(C2CCC(=O)NC2=O)C3=O)nc(N)c1C#N` (single isomer, unassigned) [Example 10], the DC50 is above 10000 nM at Ikaros and 310 nM on Helios. On to `Cc1cc(-c2ccc3c(c2)[C@@H](C)N(C2CCC(=O)NC2=O)C3=O)nc(N)c1C#N` (single isomer, unassigned) [Example 11], for which the DC50 on Ikaros was above 10000 nM; at Helios it was 6 nM. Turning to `CNc1nc(-c2ccc3c(c2)[C@@H](C)N(C2CCC(=O)NC2=O)C3=O)cc(C)c1C` (single isomer, unassigned) [Example 13], the DC50 on Ikaros was above 10000 nM; on Helios, 2800 nM. `CNc1nc(-c2ccc3c(c2)[C@H](C)N(C2CCC(=O)NC2=O)C3=O)cc(C)c1C#N` (single isomer, unassigned) [Example 14]: the DC50 on Ikaros was above 10000 nM; on Helios, 1000 nM. Turning to `CNc1nc(-c2ccc3c(c2)[C@@H](C)N(C2CCC(=O)NC2=O)C3=O)cc(C)c1C#N` (single isomer, unassigned) [Example 15], the DC50 at Ikaros was above 10000 nM; on Helios, 57 nM. As for `Cc1cc(-c2ccc3c(c2)C(C)N(C2CCC(=O)NC2=O)C3=O)nc(N)c1F` (single isomer, unassigned) [Example 21], the DC50 on Ikaros is above 10000 nM; at Helios it was 5.8 nM.

As for `Cc1cc(-c2ccc3c(c2)C(C)N(C2CCC(=O)NC2=O)C3=O)nc(N)c1F` (single isomer, unassigned) [Example 22], the DC50 at Ikaros is above 10000 nM; on Helios it was 200 nM. Turning to `Cc1cc(-c2ccc3c(c2C)CN(C2CCC(=O)NC2=O)C3=O)nc(N)c1C#N` (stereo not shown) [Example 1, 2-amino-6-(2-(2,6-dioxopiperidin-3-yl)-4-methyl-1-oxoisoindolin-5-yl)-4-methylnicotinonitrile], the DC50 at Ikaros was above 10000 nM; on Helios it was 1400 nM. `Cc1cc(-c2ccc3c(c2F)CN(C2CCC(=O)NC2=O)C3=O)nc(N)c1C#N` (stereo not shown) [Example 3, 2-Amino-6-(2-(2,6-dioxopiperidin-3-yl)-4-fluoro-1-oxoisoindolin-5-yl)-4-methylnicotinonitrile]: the DC50 at Ikaros is above 10000 nM; on Helios, 3 nM.

Regarding `Cc1cc(-c2ccc3c(c2F)CN(C2CCC(=O)NC2=O)C3=O)nc(N)c1C` (stereo not shown) [Example 7, 3-(5-(6-Amino-4,5-dimethylpyridin-2-yl)-4-fluoro-1-oxoisoindolin-2-yl)piperidine-2,6-dione], the DC50 was above 10000 nM on Ikaros and 1 nM at Helios.

For the compound `CNc1nc(-c2ccc3c(c2)[C@H](C)N(C2CCC(=O)NC2=O)C3=O)cc(C)c1C` (stereo partly drawn) [Example 12, 3-((S)-5-(4,5-Dimethyl-6-(methylamino)pyridin-2-yl)-3-methyl-1-oxoisoindolin-2-yl) piperidine-2,6-dione], the DC50 on Ikaros was above 10000 nM; on Helios, 33 nM. Regarding `Cc1cc(-c2ccc3c(c2F)CN(C2CCC(=O)NC2=O)C3=O)nc(N)c1F` (stereo not shown) [Example 19, 3-(5-(6-Amino-5-fluoro-4-methylpyridin-2-yl)-4-fluoro-1-oxoisoindolin-2-yl)piperidine-2,6-dione], the DC50 at Ikaros was above 10000 nM; at Helios, 3.5 nM.

For `Cc1cc(N)nc(-c2ccc3c(c2F)CN(C2CCC(=O)NC2=O)C3=O)c1F` (stereo not shown) [Example 20, 3-(5-(6-Amino-3-fluoro-4-methylpyridin-2-yl)-4-fluoro-1-oxoisoindolin-2-yl)piperidine-2,6-dione], at Ikaros, the DC50 was above 10000 nM. Consider `Cc1cc(-c2ccc3c(c2F)[C@@H](C)N(C2CCC(=O)NC2=O)C3=O)nc(N)c1C#N` (stereo partly drawn) [Example 23, 2-Amino-6-((3R)-2-(2,6-dioxopiperidin-3-yl)-4-fluoro-3-methyl-1-oxoisoindolin-5-yl)-4-methylnicotinonitrile], for which the DC50 is above 10000 nM on Ikaros and 35 nM at Helios. Consider `Cc1cc(N)nc(-c2ccc3c(c2F)[C@@H](C)N(C2CCC(=O)NC2=O)C3=O)c1` (stereo partly drawn) [Example 24, 3-((R)-5-(6-Amino-4-methylpyridin-2-yl)-4-fluoro-3-methyl-1-oxoisoindolin-2-yl) piperidine-2,6-dione], for which the figures for the DC50 on Ikaros and on Helios were above 10000 nM and 160 nM, respectively.

As to `C[C@@H]1c2c(ccc(-c3cc(C(F)(F)F)cc(N)n3)c2F)C(=O)N1C1CCC(=O)NC1=O` (stereo partly drawn) [Example 25, 3-((R)-5-(6-Amino-4-(trifluoromethyl)pyridin-2-yl)-4-fluoro-3-methyl-1-oxoisoindolin-2-yl)piperidine-2,6-dione], the DC50 on Ikaros is above 10000 nM; at Helios it was 1300 nM. In the case of `Cc1cc(-c2ccc3c(c2F)[C@@H](C)N(C2CCC(=O)NC2=O)C3=O)nc(N)c1F` (stereo partly drawn) [Example 29, 3-((R)-5-(6-amino-5-fluoro-4-methylpyridin-2-yl)-4-fluoro-3-methyl-1-oxoisoindolin-2-yl)piperidine-2,6-dione], the DC50 on Ikaros is above 10000 nM; on Helios it was 24 nM. For the compound `Cc1cc(-c2ccc3c(c2F)[C@H](C)N(C2CCC(=O)NC2=O)C3=O)nc(N)c1F` (stereo partly drawn) [Example 30, 3-((S)-5-(6-Amino-5-fluoro-4-methylpyridin-2-yl)-4-fluoro-3-methyl-1-oxoisoindolin-2-yl)piperidine-2,6-dione], the results for the DC50 on Ikaros and on Helios were above 10000 nM and 700 nM, respectively.
